From patent US20230322724A1, “HETEROCYCLIC COMPOUNDS AS CBP/EP300 BROMODOMAIN INHIBITORS” (AURIGENE ONCOLOGY LIMITED, priority 2020, published 2023) come the findings set out here.

What all share (format): binding
Assay [1] addresses T1, recombinant CREBBP bromodomain (Homo sapiens, UniProt Q92793).
T1 construct: recombinant CREBBP bromodomain obtained from BPS Bioscience, USA; purchased BPS Bioscience, USA
Put plainly: CBP TR-FRET displacement assay. The settings on record: for IC50: dose-response, read-out: IC50 (group A, B, C); for inhibition at 10 µM: compound at 10 μM. In a few lines: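 CREBBP bromodomain (50 nM) preincubated 30 min at room temperature with 500 nM biotinylated ligand in HEPES pH 7.5 buffer with TCEP, then 60 min with compound. Eu-anti-His/APC-streptavidin TR-FRET 665/615 nm ratio read; IC50 from sigmoidal dose-response fit.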
In general terms: Time-resolved FRET reads energy transfer from a long-lived donor to a nearby acceptor.

Assay [2] addresses T2, recombinant P300 bromodomain (Homo sapiens, UniProt Q09472).
T2 construct: recombinant P300 bromodomain obtained from BPS Bioscience, USA; purchased BPS Bioscience, USA
T2 sequence (Q09472 1049-1156 limits assumed): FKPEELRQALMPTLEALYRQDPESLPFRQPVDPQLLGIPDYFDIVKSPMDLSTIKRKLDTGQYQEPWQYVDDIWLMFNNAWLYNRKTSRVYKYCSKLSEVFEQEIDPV
The experiment in a line: P300 TR-FRET displacement assay. The settings on record: dose-response, read-out: IC50 (group A, B, C). The procedure: The potency of compounds to inhibit P300 enzyme was tested in a TR-FRET displacement assay using recombinant P300 bromodomain obtained from BPS Bioscience, USA. The assay buffer was 50 mM HEPES (pH 7.5), 50 mM NaCl, 0.008% Brij 35, 0.01% BSA, 1 mM TCEP. 50 nM of P300 & 500 nM of Biotinylated ligand was incubated at room temperature for 30 minutes, the reaction was initiated by adding the pre-incubated enzyme ligand mixture to the test compounds. After 60 min incubation, the reaction was stopped by the addition of stop mix containing 1 nM of LANCE Europium-anti-6xHis antibody (Perkin Elmer, USA) and 40 nM of Sure Light Allophycocyanin-Streptavidin (Perkin Elmer, USA). Fluorescence emission of the samples at 665 and 615 nm were measured at an excitation of 340 nm and their ratio was plotted against the compound concentrations to generate dose-response curve.
Selected compounds of the present invention were screened in the above-mentioned assay procedures and IC50 values were determined by fitting the dose-response data to sigmoidal curve fitting equation using Graph pad prism software V7.

Assay [3] has as its target T3, recombinant BRD4 FL bromodomain (Homo sapiens, UniProt O60885).
T3 construct: fused on or other part: 6xHis tag, inferred from detection with Mab ANTI 6HIS-XL665
The experiment in a line: BRD4 FL TR-FRET displacement assay. Particulars: BRD4 FL; for IC50: dose-response, read-out: IC50 (group A, B, C); for inhibition at 10 µM: compound at 10 μM, read-out: % Inhibition (10 μM). Put shortly: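 Recombinant BRD4 FL (10 nM) pre-incubated 30 min at room temperature with 300 nM biotinylated acetyl-histone H4 (K5/8/12/16) in 50 mM HEPES pH 7.5, 50 mM NaCl, 500 μM CHAPS, then added to compounds for 30 min. Stopped with Eu-streptavidin/anti-6His-XL665 in KF; 665/615 nm ratio fitted sigmoidally for IC50.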

Molecules are shown by their SMILES. Some results are limits rather than exact numbers.

T1 sequence (Q92793 1085-1192 limits assumed): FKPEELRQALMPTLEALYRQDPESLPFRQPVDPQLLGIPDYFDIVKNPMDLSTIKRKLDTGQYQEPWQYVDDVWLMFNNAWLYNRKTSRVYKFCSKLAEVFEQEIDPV

With `COc1cc(N2CCN(C)c3ccc(S(N)(=O)=O)cc32)c2cc(C)c(=O)n(C)c2c1` [Example 94], the IC50 in assay [1] was less than 50 nM; in assay [2], less than 25 nM; in assay [3] it was 2010 to 5000 nM.

In the case of `COc1cc(N2CCN(C)c3cc(F)c(S(N)(=O)=O)cc32)c2cc(C)c(=O)n(C)c2c1` [Example 86], the IC50 in assay [1] is less than 50 nM; in assay [2] it was 25 to 50 nM; in assay [3], 2010 to 5000 nM.

`CNC(=O)c1cc2c(cc1C#N)N(c1cc(OC)cc3c1cc(C)c(=O)n3C)CCN2C` [Example 69, 7-cyano-1-(7-methoxy-1,3-dimethyl-2-oxo-1,2-dihydroquinolin-5-yl)-N,4-dimethyl-1,2,3,4-tetrahydroquinoxaline-6-carboxamide]: the IC50 was less than 50 nM in assay [1] and less than 25 nM in assay [2]. In addition, the inhibition at 10 µM in assay [3] was determined as 39%.

On to `COc1cc(N2CCN(C)c3cc(C(=O)O)c(C#N)cc32)c2cc(C)c(=O)n(C)c2c1` [Example 68, 7-cyano-1-(7-methoxy-1,3-dimethyl-2-oxo-1,2-dihydroquinolin-5-yl)-4-methyl-1,2,3,4-tetrahydroquinoxaline-6-carboxylic acid], for which the values for the IC50 in assay [1], in assay [2] and in assay [3] were less than 50 nM, 25 to 50 nM and 2010 to 5000 nM, respectively.

In the case of `Cc1cc2c(N3CCN(C)c4cc(-c5cnn(C)c5)c(C#N)cc43)cccc2n(C)c1=O` [Example 42], the inhibition at 10 µM amounted to 96% in assay [1] and 81% in assay [3]. For the same compound, the IC50 was less than 50 nM in assay [1] and 25 to 50 nM in assay [2].

Regarding `CN1CCN(c2cccc3c2cc(N)c(=O)n3C)c2cc(C#N)c(-c3cnn(C)c3)cc21` [Example 77, 4-(3-Amino-1-methyl-2-oxo-1,2-dihydroquinolin-5-yl)-1-methyl-7-(1-methyl-1H-pyrazol-4-yl)-1,2,3,4-tetrahydroquinoxaline-6-carbonitrile], the IC50 in assay [1] is more than 10 nM; in assay [2] it was more than 50000 nM; in assay [3] it was 2010 to 5000 nM.

As to `Cc1cc2c(N3CCCc4cc(-c5cnn(C)c5)c(C(F)F)cc43)cncc2n(C)c1=O` [Example 180], the values for the IC50 in assay [1], in assay [2] and in assay [3] were 51 to 100 nM, less than 25 nM and 2010 to 5000 nM, respectively.

Turning to `Cc1cc2c(N3CCN(C)c4cc(-c5cnn(C)c5)c(C#N)cc43)cc(OCCO)cc2n(C)c1=O` [Example 60, 4-(7-(2-Hydroxyethoxy)-1,3-dimethyl-2-oxo-1,2-dihydroquinolin-5-yl)-1-methyl-7-(1-methyl-1H-pyrazol-4-yl)-1,2,3,4-tetrahydroquinoxaline-6-carbonitrile], the values for the IC50 in assay [1] and in assay [2] were less than 50 nM and less than 25 nM, respectively.

For the compound `COc1cc(N2CCN(C)c3cc(-c4ccn(C)n4)c(C#N)cc32)c2cc(C)c(=O)n(C)c2c1` [Example 14], the IC50 is less than 50 nM in assay [1] and less than 25 nM in assay [2].

With `CNC(=O)c1ccc(-c2cc3c(cc2C(F)F)N(c2cccc4c2cc(C)c(=O)n4C)CCC3)cn1` [Example 176], the IC50 in assay [1] is less than 50 nM; in assay [2], less than 25 nM.

Turning to `CNC(=O)[C@H]1CCN(c2cc3c(cc(C)c(=O)n3C)c(N3CCCc4cc(-c5cnn(C)c5)c(C(F)F)cc43)n2)C1` [Example 212], the IC50 in assay [1] is less than 50 nM; in assay [2] it was less than 25 nM.

Turning to `COc1cc(N2CC(C)N(C)c3cc(-c4cnn(C)c4)c(C#N)cc32)c2cc(C)c(=O)n(C)c2c1` (stereo not shown) [Example 13], the IC50 in assay [1] is less than 50 nM; in assay [2], less than 25 nM.

As for `Cc1cc2c(N3CCN(C)c4cc(-c5cnn(C)c5)ccc43)cccc2[nH]c1=O` [Example 6], the inhibition at 10 µM in assay [1] stood at 100%. Further, the IC50 in assay [1] is more than 10 nM; in assay [2], more than 50000 nM; in assay [3], 2010 to 5000 nM.

`COc1cc(N2CCN(C)c3cc(-n4cc(C)cn4)c(C#N)cc32)c2cc(C)c(=O)n(C)c2c1` [Example 10]: the IC50 is less than 50 nM in assay [1] and 25 to 50 nM in assay [2].

Consider `Cc1cc2c(N3CCN(C)c4cc(-c5cnn(C)c5)c(C#N)cc43)cc(OCC3CCCN(C)C3)cc2n(C)c1=O` (single isomer, unassigned) [Example 247, 4-(1,3-Dimethyl-7-((1-methylpiperidin-3-yl)methoxy)-2-oxo-1,2-dihydroquinolin-5-yl)-1-methyl-7-(1-methyl-1H-pyrazol-4-yl)-1,2,3,4-tetrahydroquinoxaline-6-carbonitrile], for which, in assay [1], the inhibition at 10 µM was found to be 95% and the half-inhibitory concentration (IC50) was less than 50 nM. Besides, in assay [2], the IC50 is less than 25 nM.

As to `Cc1cc2c(N3CCN(C)c4cc(-c5cnn(C)c5)c(C#N)cc43)cc(OCC(=O)O)cc2n(C)c1=O` [Example 71, 2-((5-(7-Cyano-4-methyl-6-(1-methyl-1H-pyrazol-4-yl)-3,4-dihydroquinoxalin-1(2H)-yl)-1,3-dimethyl-2-oxo-1,2-dihydroquinolin-7-yl)oxy)acetic acid], the results for the IC50 in assay [1] and in assay [2] were less than 50 nM and less than 25 nM, respectively.

`COc1cc(N2CCN(C)c3cc(-c4cccnc4)c(C#N)cc32)c2cc(C)c(=O)n(C)c2c1` [Example 15]: the IC50 was less than 50 nM in assay [1] and 25 to 50 nM in assay [2].

As to `COc1cc(N2CCN(C)c3cc(-c4cnn(C)c4)c(S(=O)(=O)NC(C)=O)cc32)c2cc(C)c(=O)n(C)c2c1` [Example 108], the figures for the IC50 in assay [1] and in assay [2] were less than 50 nM and less than 25 nM, respectively.

In the case of `COc1cc(N2CCN(C)c3cc(N4CCN(C)CC4)c(C#N)cc32)c2cc(C)c(=O)n(C)c2c1` [Example 19], the IC50 in assay [1] was less than 50 nM; in assay [2] it was 25 to 50 nM.

Turning to `Cc1cc2c(N3CCN(C)c4cc(-c5cnn(C)c5)c(C=O)cc43)cccc2[nH]c1=O` [Example 57, 1-Methyl-7-(1-methyl-1H-pyrazol-4-yl)-4-(3-methyl-2-oxo-1,2-dihydroquinolin-5-yl)-1,2,3,4-tetrahydroquinoxaline-6-carbaldehyde], the values for the IC50 in assay [1] and in assay [2] were more than 10 nM and more than 50000 nM, respectively.

Take `COc1cc(N2CCN(C)c3cc(-c4cnn(C)c4)c(C#N)cc32)c2cc(C)c(=O)[nH]c2c1` [Example 7]: the values for the inhibition at 10 µM in assay [1] and in assay [3] were 90% and 77%, respectively. Further, the IC50 in assay [1] is less than 50 nM; in assay [2] it was more than 50000 nM.

For the compound `Cc1cc2c(N3CCCc4cc(-c5cnn(C)c5)c(C(F)F)cc43)nc(N3CCC4(COC4)C3)cc2n(C)c1=O` [Example 225], the IC50 in assay [1] was less than 50 nM; in assay [2] it was 25 to 50 nM.

For `CNC(=O)[C@@H]1CCN(c2cc3c(cc(C)c(=O)n3C)c(N3CCCc4cc(-c5cnn(C)c5)c(C(F)F)cc43)n2)C1` [Example 211], the IC50 in assay [1] is less than 50 nM; in assay [2], less than 25 nM.

On to `COc1cc(N2CCN(C3CC3)c3cc(N4CCN(C)CC4)c(C#N)cc32)c2cc(C)c(=O)n(C)c2c1` [Example 25], for which the IC50 is less than 50 nM in assay [1] and 25 to 50 nM in assay [2].

As usually defined, the IC50 is the concentration at which inhibition is half-maximal. For orientation: inhibition means the share of the control response that was lost under treatment.
